Literature values as cited in US8946410B2, “Automated radiosynthesis” (GE Healthcare Limited, priority 2009, dated 2015).

Target: GABAA receptor
Details: GABAA receptor affinity, related art

SMILES: CCOC(=O)c1ncn2c1CN(C)C(=O)c1cc([18F])ccc1-2 [[^18F]FMZ, [^18F]Flumazenil]
- Ki: ~0.5 nM
